Earlier results in patent US7687492B2, “1,2,4-Oxadiazole derivatives as dipeptidyl peptidase-IV inhibitors for the treatment or prevention of diabetes” (Merck Sharp & Dohme Corp., priority 2004, dated 2010).

How the values were obtained:
[1] = rats; Transplantation, 63: 1495-1500 (1997)
[2] = mouse, cyclophosphamide-induced neutropenia; WO 99/56753
DP-IV = molecular target: T1, DP-IV (Homo sapiens, UniProt P27487)
T1 construct: GRF is rapidly degraded in plasma to GRF[3-44]; host or cells: plasma (endogenous enzyme activity)
T1 sequence (P27487 whole entry): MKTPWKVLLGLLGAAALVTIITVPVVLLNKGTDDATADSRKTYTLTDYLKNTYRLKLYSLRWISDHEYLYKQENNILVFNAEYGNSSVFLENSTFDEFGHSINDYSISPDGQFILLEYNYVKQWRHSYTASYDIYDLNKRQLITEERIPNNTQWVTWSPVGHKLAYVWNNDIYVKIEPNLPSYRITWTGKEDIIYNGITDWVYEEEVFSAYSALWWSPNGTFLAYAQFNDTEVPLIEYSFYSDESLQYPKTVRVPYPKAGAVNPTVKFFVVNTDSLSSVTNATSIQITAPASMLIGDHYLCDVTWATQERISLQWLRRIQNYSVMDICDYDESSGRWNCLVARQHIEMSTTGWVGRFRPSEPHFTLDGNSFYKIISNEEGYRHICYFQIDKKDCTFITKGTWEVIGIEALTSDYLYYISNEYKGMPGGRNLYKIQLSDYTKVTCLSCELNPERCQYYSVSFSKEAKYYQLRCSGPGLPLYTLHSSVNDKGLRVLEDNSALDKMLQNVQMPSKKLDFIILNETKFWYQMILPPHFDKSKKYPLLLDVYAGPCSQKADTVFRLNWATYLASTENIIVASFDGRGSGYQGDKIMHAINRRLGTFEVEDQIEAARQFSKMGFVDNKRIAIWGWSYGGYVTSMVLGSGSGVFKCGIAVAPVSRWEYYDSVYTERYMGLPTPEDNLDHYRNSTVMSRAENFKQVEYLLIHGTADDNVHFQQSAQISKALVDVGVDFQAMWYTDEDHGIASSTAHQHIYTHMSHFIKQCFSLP

CC(C)N1CCC(c2ccccc2)(c2ccccc2)CC1 [Prodipine, Pro-Pro-diphenyl-phosphonate]
cardiac allograft survival [1]: double cardiac allograft survival in rats from day 7 to day 14

CC(C)[C@H](N)C(=O)N1CCC[C@H]1B(O)O [Val-Boro-Pro]
hematopoiesis [2]: stimulated hematopoiesis

diprotin A
degradation of GRF in plasma to GRF[3-44] (DP-IV): prevented
